Patent US5443986A, “Enzymatic analysis using substrates that yield fluorescent precipitates” (Molecular Probes, Inc., priority 1993, dated 1995)

What was measured:
β-galactosidase [1] = assay: Labeling of lacZ positive yeast cells; type: cell-based, Yeast strain EG 123; details: 200 μM staining solution mixed with equal volume of cells, after 300 μM chloroquine
Protocol: 2.1 Yeast Strain: Yeast strain EG 123 is transformed with plasmid pLGΔ-312S, which carries the yeast CYC1 promotor region and initiation codon fused in frame with the lacZ gene. The cells are grown in a synthetic medium selecting for plasmid maintenance to a density of about 10^7 cells per mL. Cells are collected by centrifugation and resuspended in Z buffer to obtain a cell suspension. Z buffer contains 0.2% β-mercaptoethanol which improves the permeability of both the yeast cell wall and the plasma membrane. Nontransformed yeast cells are used as the control.
2.2 Staining Solution: The galactosidase substrate (1h) is first dissolved in DMSO to get 10 mM stock solution. This solution is diluted 1:50 with distilled water to obtain a 200 μM staining solution.
2.3 Staining and Examination of Cells: To inhibit endogenous vacuolar galactosidase activity, yeast cells are first preincubated with 300 μM chloroquine for 20 minutes at room temperature, then mixed with an equal volume of the substrate-containing staining solution. Most of the lacZ positive cells become fluorescent within 15 minutes. A crystalline precipitate can be observed in the cells, while the lacZ negative cells remain unstained for at least 2 hours.

[2] = tested on: NIH/3T3 cells and CRE BAG 2 cells; assay: Cytotoxicity and cellular retention in fibroblast cells; type: cell-based
Protocol: (§1) 1.1 Cell Lines: NIH/3T3 cells (lacZ negative) and CRE BAG 2 cells (3T3 cells transformed with a retrovirus containing the lacZ gene) are employed for cellular assays. Both cell lines can be obtained from American Type Culture Collection Co., Rockville, Md. The cells are grown in a humidified atmosphere of 5% CO2 in Dulbecco's modified Eagle's medium supplemented with 10% calf serum, 50 μg/mL gentamicin, 300 μg/mL L-glutamine and 10 mM HEPES pH 7.4.
(§2) 1.3 Working Medium: 100 μL of the dye stock solution is added to 10 mL of fresh culture medium to prepare a "working medium" containing 100 μM of the substrate 1h. This medium is then filter-sterilized by passing through an Acrodisc™ filter (0.45μ pore size).

β-galactosidase [3] = molecular target: T1, β-galactosidase (Escherichia coli, UniProt P00722); assay: Labeling of lacZ positive fibroblast cells with a β-galactosidase substrate; type: cell-based
T1 construct: host or cells: CRE BAG 2 cells (NIH/3T3 cells transformed with a retrovirus containing lacZ)
T1 sequence (P00722 whole entry): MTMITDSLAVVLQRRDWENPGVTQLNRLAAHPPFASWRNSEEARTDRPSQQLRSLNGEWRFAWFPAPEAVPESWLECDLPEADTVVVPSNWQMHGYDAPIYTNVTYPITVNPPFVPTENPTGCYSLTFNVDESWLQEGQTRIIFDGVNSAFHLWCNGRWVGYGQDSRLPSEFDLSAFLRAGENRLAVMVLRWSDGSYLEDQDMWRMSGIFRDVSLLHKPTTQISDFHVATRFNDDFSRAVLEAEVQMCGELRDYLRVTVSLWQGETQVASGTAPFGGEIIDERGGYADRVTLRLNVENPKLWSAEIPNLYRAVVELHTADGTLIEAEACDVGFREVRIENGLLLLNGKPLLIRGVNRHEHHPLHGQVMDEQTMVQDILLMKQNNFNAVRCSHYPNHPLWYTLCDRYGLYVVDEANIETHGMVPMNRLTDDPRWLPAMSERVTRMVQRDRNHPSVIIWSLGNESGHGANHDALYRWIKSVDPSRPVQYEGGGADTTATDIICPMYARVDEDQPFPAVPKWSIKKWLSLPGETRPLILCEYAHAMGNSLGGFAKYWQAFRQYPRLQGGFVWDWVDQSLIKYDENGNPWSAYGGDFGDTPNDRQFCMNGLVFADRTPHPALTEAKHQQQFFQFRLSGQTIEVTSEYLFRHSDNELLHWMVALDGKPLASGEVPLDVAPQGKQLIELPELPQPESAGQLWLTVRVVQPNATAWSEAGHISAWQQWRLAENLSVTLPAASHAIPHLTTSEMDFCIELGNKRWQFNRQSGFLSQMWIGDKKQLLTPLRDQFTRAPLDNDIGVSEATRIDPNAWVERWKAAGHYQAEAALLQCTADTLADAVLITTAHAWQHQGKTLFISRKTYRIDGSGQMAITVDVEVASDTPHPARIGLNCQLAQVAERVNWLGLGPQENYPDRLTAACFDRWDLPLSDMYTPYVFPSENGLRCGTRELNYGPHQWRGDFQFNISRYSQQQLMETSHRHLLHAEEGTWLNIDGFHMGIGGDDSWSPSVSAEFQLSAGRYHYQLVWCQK
Protocol: as §1
1.2 Stock Solution of the Labeling Reagent: The β-galactosidase substrate 1h is dissolved in DMSO to get a 10 mM stock solution.
as §2
1.4 Staining and Examination of Cells: Cells grown on coverslips are transferred to the working medium and incubated at 37° C. under normal culture conditions. Cells are examined at the desired time for their fluorescence under a Zeiss microscope equipped with a Hoechst filter set (typically excitation at about 360 nm and emission past 480 nm). […] After 6 hours, the fluorescence intensity of stained CRE BAG 2 cells reaches its highest level.

[4] = tested on: epidermal growth factor (EGF) receptors; assay: Detection of a growth factor receptor in A431 cells; type: cell-based, human; details: fluorescence microscope; substrate 0.1 mM 15 minutes, or 50 ng/mL direct conjugate
Protocol: 1 ). Cells. Dish-cultured A431 cells (American Type Culture Collection, Rockville, Md.) are digested with trypsin and transferred to glass cover-slips. The cells are subcultured and stabilized for 24 to 48 hours before use.
2). Staining. The slips are transferred into a staining dish, washed with PBS, rinsed in a 0.5% formaldehyde PBS solution for 15 minutes at room temperature, washed with PBS, then incubated in 50 ng/mL biotinylated epidermal growth factor (biotin-EGF; Molecular Probes, Inc., Eugene, Oreg.) in PBS solution for 30 minutes at room temperature. The slips are washed with PBS buffer, then incubated with 1 μg/mL streptavidin alkaline phosphatase (Molecular Probes, Inc.) in a reaction buffer (0.1M TRIS pH 7.8 containing 0.15M NaCl, 50 mM MgCl2 and 0.1 mM ZnCl2) for 30 minutes at room temperature. The slips are washed with the reaction buffer, then incubated with 0.1 mM of a precipitating alkaline phosphatase substrate in the reaction buffer for 15 minutes at room temperature. The substrate solution is filtered through a 0.2 μM filter (Millipore, Bedford, Mass.) before use.
3). Detection. The slips are washed with PBS then examined under a Zeiss fluorescence microscope equipped with suitable filters (typically excitation at about 360 nm and emission past 480 nm). […] Alternatively the fluorescent labeled cells can be detected and the intensity quantitated by flow cytometry.

Row | Compound | time for which lacZ negative yeast cells remain unstained (β-galactosidase [1]) | time within which most lacZ positive yeast cells become fluorescent (β-galactosidase [1]) [min] | cytotoxicity [2] | cell morphology and population doubling time ([2]; 100 μM working medium, 24 hours) | time at which fluorescence intensity of stained CRE BAG 2 cells reaches its highest level (β-galactosidase [3]; 100 μM working medium) [h] | fluorescent staining of 3T3 cells (lacZ negative) (β-galactosidase [3]; 100 μM, 60 minutes, 37° C.) | fluorescent staining of lacZ positive CRE BAG 2 cells (β-galactosidase [3]; 100 μM, 60 minutes, 37° C.) | fluorescence of stained fixed A431 cells [4]
1 | O=c1[nH]c(-c2ccccc2O[C@@H]2O[C@H](CO)[C@H](O)[C@H](O)[C@H]2O)nc2ccccc12 [1h] | at least 2 hours | ≤ 15 | no cytotoxicity | look morphologically normal and have the same population doubling time as the control | 6 | not in the 3T3 cells | fluorescent spots can be observed in the cytoplasmic area | 
2 | fluorescein EGF: direct fluorescent conjugate of epidermal growth factor (NSDSECPLSHDGYCLHDGVCMYIEALDKYACNCVVGYIGERCQYRDLKWWELR; Epidermal growth factor fluorescein label; UniProt P01133 971-1023, looked up) |  |  |  |  |  |  |  | extremely low visibility and very low photostability
